Experimental data: publication PMC3312006 (2011)

Legend:
[1] = target: T1, histone acetyltransferase p300 (KAT3B) (Homo sapiens, UniProt Q09472); test: biochemical
T1 sequence (Q09472 1066-1707): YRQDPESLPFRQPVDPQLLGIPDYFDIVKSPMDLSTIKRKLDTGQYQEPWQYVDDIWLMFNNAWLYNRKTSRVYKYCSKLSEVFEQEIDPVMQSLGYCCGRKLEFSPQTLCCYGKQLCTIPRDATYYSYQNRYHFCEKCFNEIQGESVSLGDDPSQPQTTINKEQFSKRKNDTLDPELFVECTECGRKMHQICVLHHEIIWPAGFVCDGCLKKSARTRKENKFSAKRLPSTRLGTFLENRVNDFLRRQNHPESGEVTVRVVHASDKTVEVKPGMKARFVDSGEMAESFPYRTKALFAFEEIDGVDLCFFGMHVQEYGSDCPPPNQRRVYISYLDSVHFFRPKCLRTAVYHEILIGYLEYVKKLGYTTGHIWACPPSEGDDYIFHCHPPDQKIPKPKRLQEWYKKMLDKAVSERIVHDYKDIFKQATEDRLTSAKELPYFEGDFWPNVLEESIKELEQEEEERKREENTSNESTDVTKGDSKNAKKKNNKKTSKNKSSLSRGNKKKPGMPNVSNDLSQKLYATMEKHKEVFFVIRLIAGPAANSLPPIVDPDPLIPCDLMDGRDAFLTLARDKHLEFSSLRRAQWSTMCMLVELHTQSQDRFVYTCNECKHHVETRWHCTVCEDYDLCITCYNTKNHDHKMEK

[2] = target: T1, histone acetyltransferase p300 (KAT3B); test: in vitro filter-binding HAT assay with […]acetyl-CoA and HeLa core histones; format: biochemical

IC50 [1] [nM]	IC50 [2] [nM]	Structure (SMILES)
~750		CCCCC[C@H](O)C/C=C1/C(=O)C=C[C@@H]1C/C=C\CCCC(=O)O [Δ^12-PGJ2]
	> 2000	CCCCC[C@H](O)/C=C/[C@H]1C(=O)C=C[C@@H]1C/C=C\CCCC(=O)O [PGJ2]
